Source: patent US12421243B2, “Pharmaceutically effective compounds inhibiting selectively the myosin 2 isoforms” (PRINTNET KERESKEDELMI ÉS SZOLGÁLTATÓ KFT., priority 2018, dated 2025)

Key:
[1] = molecular target: recombinant human non-muscle myosin 2 NM2B (Homo sapiens, UniProt P35580); assay: actomyosin steady state ATPase measurement, NM2B; type: biochemical
Excerpt: (§1) […]; (ii) the concentration required for semi-maximal inhibition.

[2] = molecular target: recombinant human non-muscle myosin 2 NM2C (Homo sapiens, UniProt Q7Z406); assay: actomyosin steady state ATPase measurement, NM2C; type: biochemical; settings: for IC50: concentration required for semi-maximal inhibition of ATPase; for % inhibition. complete NM2C: maximum value of inhibition of ATPase activity; for inhibition at 5 µM: read-out: % inhibition at 5 μM (or 10 μM if racemate) NM2C, 5 μM (10 μM if racemate); for inhibition at 5 µM / inhibition at 50 µM: ATPase activity; for inhibition at 50 µM: read-out: % inhibition at 50 μM (or 100 μM if racemate) NM2C, 50 μM (100 μM if racemate)
Excerpt: as §1

[3] = system: isolated rabbit skeletal muscle myosin (skeletal); assay: actomyosin steady state ATPase measurement, skeletal muscle myosin; type: biochemical; settings: for % inhibition at 5 μM (or 10 μM if racemate) Skeletal: 5 μM (10 μM if racemate); for % inhibition at 5 μM (or 10 μM if racemate) Skeletal / % inhibition at 50 μM (or 100 μM if racemate) Skeletal: ATPase activity; for % inhibition at 50 μM (or 100 μM if racemate) Skeletal: 50 μM (100 μM if racemate); for IC50: concentration required for semi-maximal inhibition of ATPase; for % inhibition. complete Skeletal: maximum value of inhibition of ATPase activity
Excerpt: as §1

[4] = molecular target: isolated smooth muscle myosin (UniProt P10587); type: biochemical, chamois; settings: for % inhibition at 5 μM (or 10 μM if racemate) Smooth: 5 μM (10 μM if racemate); for % inhibition at 5 μM (or 10 μM if racemate) Smooth / % inhibition at 50 μM (or 100 μM if racemate) Smooth: ATPase activity; for % inhibition at 50 μM (or 100 μM if racemate) Smooth: 50 μM (100 μM if racemate); for % inhibition. complete Smooth: maximum value of inhibition of ATPase activity
[5] = molecular target: recombinant human non-muscle myosin 2 NM2A (Homo sapiens, UniProt P35579); assay: actomyosin steady state ATPase measurement, NM2A; type: biochemical; settings: for IC50: concentration required for semi-maximal inhibition of ATPase; for % inhibition. complete NM2A: maximum value of inhibition of ATPase activity; for inhibition at 5 µM: read-out: % inhibition at 5 μM (or 10 μM if racemate) NM2A, 5 μM (10 μM if racemate); for inhibition at 5 µM / inhibition at 50 µM: ATPase activity; for inhibition at 50 µM: read-out: % inhibition at 50 μM (or 100 μM if racemate) NM2A, 50 μM (100 μM if racemate)
Excerpt: as §1

[6] = solubility in PBS in the presence of 1% DMSO; type: physicochemical; settings: phosphate buffered saline with 1% DMSO, aqueous buffer, kinetic from dmso stock, PBS w/o Mg, Ca
[7] = molecular target: isolated smooth muscle myosin (UniProt P10587); type: biochemical, chamois; settings: concentration required for semi-maximal inhibition of ATPase
Excerpt: (ii) the concentration required for semi-maximal inhibition.

[8] = molecular target: recombinant Dictyostelium miozin (Dictyostelium) (Dictyostelium discoideum, UniProt P08799); assay: actomyosin steady state ATPase measurement, Dictyostelium myosin; type: biochemical; settings: for IC50: concentration required for semi-maximal inhibition of ATPase, read-out: IC50 (μM) Dicty; for % inhibition. complete Dicty: maximum value of inhibition of ATPase activity; for inhibition at 5 µM: read-out: % inhibition at 5 μM (or 10 μM if racemate) Dicty; for inhibition at 50 µM: read-out: % inhibition at 50 μM (or 100 μM if racemate) Dicty
Excerpt: as §1

[9] = molecular target: T1, isolated porcine cardiac ventricular myocardium (cardiac) (Sus scrofa, UniProt P79293); assay: actomyosin steady state ATPase measurement, cardiac myosin; type: biochemical; settings: for IC50: concentration required for semi-maximal inhibition of ATPase; for % inhibition. complete cardiac: maximum value of inhibition of ATPase activity; for inhibition at 5 µM: read-out: % inhibition at 5 μM (or 10 μM if racemate) cardiac, 5 μM (10 μM if racemate); for inhibition at 5 µM / inhibition at 50 µM: ATPase activity; for inhibition at 50 µM: read-out: % inhibition at 50 μM (or 100 μM if racemate) cardiac, 50 μM (100 μM if racemate)
T1 construct: isolated porcine cardiac ventricular myocardium (cardiac); from tissue; host or cells: porcine cardiac ventricle
T1 sequence (P79293 whole entry): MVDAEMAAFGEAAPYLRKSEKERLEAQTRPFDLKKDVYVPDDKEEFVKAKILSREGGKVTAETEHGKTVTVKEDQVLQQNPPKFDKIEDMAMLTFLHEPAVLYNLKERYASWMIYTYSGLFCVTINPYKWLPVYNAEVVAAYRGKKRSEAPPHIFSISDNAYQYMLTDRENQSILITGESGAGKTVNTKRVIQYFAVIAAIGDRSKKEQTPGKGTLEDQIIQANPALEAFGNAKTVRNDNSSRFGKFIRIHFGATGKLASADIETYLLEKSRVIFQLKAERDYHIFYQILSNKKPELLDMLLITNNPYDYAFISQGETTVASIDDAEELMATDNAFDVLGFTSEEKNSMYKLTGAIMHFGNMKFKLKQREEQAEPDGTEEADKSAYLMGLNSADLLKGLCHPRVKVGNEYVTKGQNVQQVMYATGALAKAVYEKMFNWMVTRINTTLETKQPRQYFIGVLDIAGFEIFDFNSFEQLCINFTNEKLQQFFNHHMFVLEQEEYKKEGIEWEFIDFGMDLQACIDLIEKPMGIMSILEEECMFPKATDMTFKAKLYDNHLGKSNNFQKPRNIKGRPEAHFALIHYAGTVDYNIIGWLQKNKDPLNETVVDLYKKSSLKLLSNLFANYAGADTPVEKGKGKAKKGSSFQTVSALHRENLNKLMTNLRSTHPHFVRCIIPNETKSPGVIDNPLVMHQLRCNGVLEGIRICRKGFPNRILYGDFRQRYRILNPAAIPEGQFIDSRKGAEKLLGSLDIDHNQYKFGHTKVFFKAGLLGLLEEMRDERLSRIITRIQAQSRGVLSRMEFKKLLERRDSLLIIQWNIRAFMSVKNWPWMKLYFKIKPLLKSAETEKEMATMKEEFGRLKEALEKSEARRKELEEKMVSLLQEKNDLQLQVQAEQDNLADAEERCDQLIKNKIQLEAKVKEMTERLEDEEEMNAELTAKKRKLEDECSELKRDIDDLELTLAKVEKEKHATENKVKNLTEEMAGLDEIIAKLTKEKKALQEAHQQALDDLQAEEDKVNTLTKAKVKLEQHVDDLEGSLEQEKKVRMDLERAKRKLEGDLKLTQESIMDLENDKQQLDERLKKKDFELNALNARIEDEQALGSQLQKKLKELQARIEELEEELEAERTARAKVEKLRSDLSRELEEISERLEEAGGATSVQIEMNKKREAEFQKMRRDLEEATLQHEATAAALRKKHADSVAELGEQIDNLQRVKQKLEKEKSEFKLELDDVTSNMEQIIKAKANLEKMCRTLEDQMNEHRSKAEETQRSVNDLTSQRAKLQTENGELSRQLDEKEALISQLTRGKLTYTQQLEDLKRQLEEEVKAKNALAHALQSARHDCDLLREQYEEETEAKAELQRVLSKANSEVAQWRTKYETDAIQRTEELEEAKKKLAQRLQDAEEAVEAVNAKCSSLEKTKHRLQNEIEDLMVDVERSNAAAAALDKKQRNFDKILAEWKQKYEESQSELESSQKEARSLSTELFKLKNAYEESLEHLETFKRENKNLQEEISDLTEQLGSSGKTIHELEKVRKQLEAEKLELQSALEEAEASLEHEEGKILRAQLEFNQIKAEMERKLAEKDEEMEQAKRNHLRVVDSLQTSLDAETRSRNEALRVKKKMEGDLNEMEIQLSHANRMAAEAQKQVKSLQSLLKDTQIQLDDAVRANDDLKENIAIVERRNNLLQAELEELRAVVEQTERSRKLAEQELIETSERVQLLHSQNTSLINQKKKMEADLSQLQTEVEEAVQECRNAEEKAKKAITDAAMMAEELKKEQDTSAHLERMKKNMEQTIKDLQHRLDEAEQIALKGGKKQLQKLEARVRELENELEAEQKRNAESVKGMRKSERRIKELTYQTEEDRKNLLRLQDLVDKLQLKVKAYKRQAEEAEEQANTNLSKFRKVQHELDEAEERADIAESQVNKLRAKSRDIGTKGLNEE
Excerpt: as §1

recombinant human non-muscle myosin 2 NM2B, sequence (P35580 whole entry): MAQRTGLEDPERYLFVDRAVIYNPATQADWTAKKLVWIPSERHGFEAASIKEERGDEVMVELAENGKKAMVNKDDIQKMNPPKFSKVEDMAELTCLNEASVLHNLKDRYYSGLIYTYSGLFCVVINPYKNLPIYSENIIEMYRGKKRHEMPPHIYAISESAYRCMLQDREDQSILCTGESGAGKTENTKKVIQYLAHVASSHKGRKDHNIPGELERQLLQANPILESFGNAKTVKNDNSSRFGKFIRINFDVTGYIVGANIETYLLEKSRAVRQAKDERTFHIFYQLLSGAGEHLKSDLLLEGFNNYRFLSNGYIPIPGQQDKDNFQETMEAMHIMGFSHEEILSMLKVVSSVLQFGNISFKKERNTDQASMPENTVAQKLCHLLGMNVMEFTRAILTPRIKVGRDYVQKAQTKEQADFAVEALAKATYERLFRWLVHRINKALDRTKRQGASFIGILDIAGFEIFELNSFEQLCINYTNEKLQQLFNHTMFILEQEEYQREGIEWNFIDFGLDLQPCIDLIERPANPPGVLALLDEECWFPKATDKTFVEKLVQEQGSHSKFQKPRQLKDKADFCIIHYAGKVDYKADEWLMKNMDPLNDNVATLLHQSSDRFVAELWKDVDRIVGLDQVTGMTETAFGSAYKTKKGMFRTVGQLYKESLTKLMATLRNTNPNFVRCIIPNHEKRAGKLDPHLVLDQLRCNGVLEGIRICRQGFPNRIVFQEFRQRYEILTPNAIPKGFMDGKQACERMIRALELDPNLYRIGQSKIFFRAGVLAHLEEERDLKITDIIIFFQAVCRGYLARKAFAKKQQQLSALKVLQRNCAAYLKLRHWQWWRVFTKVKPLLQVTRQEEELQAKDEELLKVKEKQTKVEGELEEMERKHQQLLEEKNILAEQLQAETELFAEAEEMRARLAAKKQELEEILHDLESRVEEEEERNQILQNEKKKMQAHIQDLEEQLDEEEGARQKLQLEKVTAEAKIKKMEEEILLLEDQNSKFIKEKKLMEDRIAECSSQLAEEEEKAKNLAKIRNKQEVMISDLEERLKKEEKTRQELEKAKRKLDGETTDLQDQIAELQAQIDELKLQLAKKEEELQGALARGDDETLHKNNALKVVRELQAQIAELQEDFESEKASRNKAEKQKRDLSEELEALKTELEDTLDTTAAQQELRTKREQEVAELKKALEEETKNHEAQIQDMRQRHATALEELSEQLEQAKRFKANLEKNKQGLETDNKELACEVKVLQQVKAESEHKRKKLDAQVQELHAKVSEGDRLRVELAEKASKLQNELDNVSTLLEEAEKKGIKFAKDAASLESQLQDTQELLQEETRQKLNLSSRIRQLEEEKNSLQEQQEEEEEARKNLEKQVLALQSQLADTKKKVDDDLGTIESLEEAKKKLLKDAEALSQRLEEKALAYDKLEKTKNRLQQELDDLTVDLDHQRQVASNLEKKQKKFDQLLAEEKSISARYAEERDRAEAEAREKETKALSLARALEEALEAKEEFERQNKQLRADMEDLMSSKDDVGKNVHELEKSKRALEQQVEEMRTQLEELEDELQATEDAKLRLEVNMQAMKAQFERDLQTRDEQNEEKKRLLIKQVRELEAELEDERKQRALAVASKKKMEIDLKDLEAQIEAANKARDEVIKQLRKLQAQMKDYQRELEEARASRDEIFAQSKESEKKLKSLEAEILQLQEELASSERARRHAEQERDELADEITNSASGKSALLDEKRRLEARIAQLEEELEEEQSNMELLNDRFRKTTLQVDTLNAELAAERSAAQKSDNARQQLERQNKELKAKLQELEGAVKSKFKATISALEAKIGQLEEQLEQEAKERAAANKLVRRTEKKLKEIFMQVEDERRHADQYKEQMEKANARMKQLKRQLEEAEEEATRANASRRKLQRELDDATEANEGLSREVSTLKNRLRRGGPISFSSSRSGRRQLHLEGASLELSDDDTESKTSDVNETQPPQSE

| SMILES | IC50 [2] [µM] | % inhibition. complete NM2C [2] [%] | inhibition at 5 µM [2] [%] | inhibition at 50 µM [2] [%] | % inhibition at 5 μM (or 10 μM if racemate) Skeletal [3] [%] | % inhibition at 50 μM (or 100 μM if racemate) Skeletal [3] [%] | IC50 [3] [µM] | % inhibition. complete Skeletal [3] [%] | % inhibition at 5 μM (or 10 μM if racemate) Smooth [4] [%] | % inhibition at 50 μM (or 100 μM if racemate) Smooth [4] [%] | % inhibition. complete Smooth [4] [%] | IC50 [5] [µM] | % inhibition. complete NM2A [5] [%] | inhibition at 5 µM [5] [%] | inhibition at 50 µM [5] [%] | solubility [6] [µM] | IC50 [7] [µM] | IC50 [8] [µM] | % inhibition. complete Dicty [8] [%] | inhibition at 5 µM [8] [%] | also measured |
| --- | --- | --- | --- | --- | --- | --- | --- | --- | --- | --- | --- | --- | --- | --- | --- | --- | --- | --- | --- | --- | --- |
| O=C1c2ccsc2N=C2N(c3ccccc3)CCC12O (centres unmarked) [Compound 180, 9-Hydroxy-12-phenyl-4-thia-2,12-diazatricyclo[7.3.0.0^3,7]dodeca-1,3(7),5-trien-8-one] | 9.3 | 60 | 20 | 55 | 87 | 96 | 0.81 | 99 | 16 | 38 | 58 | 9.8 | 48 | 15 | 44 | 2400 | 14 | 13.1 | 85 | 22 | IC50 ([1]; concentration required for semi-maximal inhibition of ATPase): 18.7 µM; % inhibition. complete NM2B ([1]; maximum value of inhibition of ATPase activity): 60%; inhibition at 5 µM ([1]; read-out: % inhibition at 5 μM (or 10 μM if racemate) NM2B, 5 μM (10 μM if racemate), ATPase activity): 14%; inhibition at 50 µM ([1]; read-out: % inhibition at 50 μM (or 100 μM if racemate) NM2B, 50 μM (100 μM if racemate), ATPase activity): 44%; Inhibition (%) NM2A ([5]; maximum inhibition, compounds in IC50 range 5-10 μM): 48%; inhibition at 50 µM [8]: 67%; IC50 [9]: 5.1 µM; Inhibition (%) cardiac ([9]; maximum inhibition, compounds in IC50 range 3-6 μM): 89%; % inhibition. complete cardiac [9]: 89%; inhibition at 5 µM [9]: 42%; inhibition at 50 µM [9]: 81% |
| CC(=O)c1ccc(N2CC[C@@]3(O)C(=O)c4ccsc4N=C23)cc1 [Compound 214, (9S)-12-(4-acetylphenyl)-9-hydroxy-4-thia-2,12-diazatricyclo[7.3.0.0^3,7]dodeca-1,3(7),5-trien-8-one] | 2.9 | 36 | 21 | 34 | 80 | 97 | 1.2 | 100 | 6 | 52 | 100 | 1 | 32 | 25 | 31 | 820 | 49 | 36 | 100 | 8 | Inhibition (%) NM2C ([2]; maximum inhibition, compounds in IC50 range 1-5 μM): 36%; inhibition at 50 µM [8]: 59%; IC50 [9]: 8.8 µM; % inhibition. complete cardiac [9]: 86%; inhibition at 5 µM [9]: 30%; inhibition at 50 µM [9]: 73% |
| Nc1ccc(N2CC[C@@]3(O)C(=O)c4ccsc4N=C23)cc1 [Compound 210, (9S)-12-(4-aminophenyl)-9-hydroxy-4-thia-2,12-diazatricyclo[7.3.0.0^3,7]dodeca-1,3(7),5-trien-8-one] | 5.2 | 41 | 18 | 38 | 44 | 84 | 5.6 | 94 | 9 | 28 | 37 | > 100 | 100 | 0 | 14 | 1360 | 12.5 | > 100 | 100 | 3 | inhibition at 50 µM [8]: 34%; IC50 [9]: 6 µM; % inhibition. complete cardiac [9]: 82%; inhibition at 5 µM [9]: 36%; inhibition at 50 µM [9]: 73% |
| COc1ccc(N2CC[C@@]3(O)C(=O)c4ccsc4N=C23)cc1 [Compound 211, (9S)-9-hydroxy-12-(4-methoxyphenyl)-4-thia-2,12-diazatricyclo[7.3.0.0^3,7]dodeca-1,3(7),5-trien-8-one] | 2 | 70 | 46 | 67 | 93 | 98 | 0.28 | 98 | 34 | 74 | 85 | 22 | 99 | 17 | 69 | 510 | 7 | 9.4 | 100 | 33 | inhibition at 50 µM [8]: 85%; IC50 [9]: 1.3 µM; % inhibition. complete cardiac [9]: 87%; inhibition at 5 µM [9]: 67%; inhibition at 50 µM [9]: 85% |
